In US20250387426A1 (priority 2024, published 2025):

Experiments:
migraine headache = settings: human, in vivo
tension headache = settings: human, in vivo

With `Clc1ccc2nsnc2c1NC1=NCCN1` [tizanidine] the “benefit as migraine prophylactic agent” value (migraine headache) was “without benefit” and the “benefit as migraine prophylaxis” value (migraine headache) was “partially helpful”.

For `CC(C)NCC(O)COc1cccc2ccccc12` (centres unmarked) [propranolol], the “benefit as migraine prophylactic agent” value (migraine headache) was “without benefit”, the “benefit from previous treatment” value (migraine headache) was “no benefit” and the “tolerability” value (migraine headache) was “caused dizziness”.

`Oc1ccc2c(c1)[C@@]13CCCC[C@@]1(O)[C@@H](C2)N(CC1CCC1)CC3` [butorphanol] was tested, and the “benefit as rescue medication” value (migraine headache) was “without benefit”.

With `NC(=O)N1c2ccccc2C=Cc2ccccc21` [carbamazepine] the “benefit as migraine prophylactic agent” value (migraine headache) was “without benefit”.

In the case of `O=C(O)Cc1ccccc1Nc1c(Cl)cccc1Cl` [diclofenac], the “benefit as rescue medication” value (migraine headache) is reported as “without benefit”.

In the case of `CC1(C)O[C@@H]2[C@@H](CO[C@@]3(COS(N)(=O)=O)OC(C)(C)O[C@@H]23)O1` [topiramate], the “benefit as migraine prophylactic agent” value (migraine headache) is reported as “without benefit”, the “severe migraine headache frequency” value (migraine headache) is reported as 5 to 7 days a week and the “tolerability” value (migraine headache) is reported as “could not tolerate the side effects”.

For `CC(C)Cc1ccc(C(C)C(=O)O)cc1` (centres unmarked) [ibuprofen], the “benefit from previous treatment” value (migraine headache) was “no benefit” and the “headache relief” value (tension headache) was “may resolve with ibuprofen”.

For `CN(C)CCc1c[nH]c2ccc(C[C@H]3COC(=O)N3)cc12` [zolmitriptan nasal spray, zolmitriptan], the “benefit as rescue medication” value (migraine headache) was “without benefit”.

In the case of `C[C@]12C=CC(=O)C=C1CC[C@@H]1[C@@H]2C(=O)C[C@@]2(C)[C@H]1CC[C@]2(O)C(=O)CO` [prednisone], the “benefit as migraine prophylactic agent” value (migraine headache) is reported as “without benefit”.

In the case of `C[C@@H]1[C@H](c2ccccc2)C[C@H](NC(=O)c2cnc3c(c2)C[C@@]2(C3)C(=O)Nc3ncccc32)C(=O)N1CC(F)(F)F` [Ubrelvy], the “benefit as rescue medication” value (migraine headache) is reported as “not helpful”.

`Cc1cc2nc3c(=O)[nH]c(=O)nc-3n(C[C@H](O)[C@H](O)[C@H](O)CO)c2cc1C` [riboflavin] was tested, and the “effect on headache frequency” value (migraine headache) was “did not affect the frequency of their headaches”.

In the case of `CN(C)CCC=C1c2ccccc2CCc2ccccc21` [amitriptyline], the “benefit as migraine prophylactic agent” value (migraine headache) is reported as “without benefit”.

In the case of `COC1=C(OC)C(=O)C(C/C=C(\C)CC/C=C(\C)CC/C=C(\C)CC/C=C(\C)CC/C=C(\C)CC/C=C(\C)CC/C=C(\C)CC/C=C(\C)CC/C=C(\C)CCC=C(C)C)=C(C)C1=O` [coenzyme Q10], the “benefit as migraine prophylactic agent” value (migraine headache) is reported as “without benefit”, the “benefit as migraine prophylaxis” value (migraine headache) is reported as “no benefit” and the “effect on headache frequency” value (migraine headache) is reported as “did not affect the frequency of their headaches”.

`NCC1(CC(=O)O)CCCCC1` [gabapentin] was tested, and the “benefit as migraine prophylactic agent” value (migraine headache) was “without benefit”, the “benefit as migraine prophylaxis” value (migraine headache) was “no benefit” and the “benefit from previous treatment” value (migraine headache) was “no benefit”.

`CCCC(CCC)C(=O)O` [valproic acid] was tested, and the “benefit as migraine prophylactic agent” value (migraine headache) was “without benefit”.

For `CCCCN1CCCCC1C(=O)Nc1c(C)cccc1C` (centres unmarked) [bupivacaine], the “pain after local anesthetic injection along superior nuchal line” value (migraine headache) was “substantially improved for two days”.

`CN1CCC[C@@H]1Cc1c[nH]c2ccc(CCS(=O)(=O)c3ccccc3)cc12` [eletriptan] was tested, and the “benefit as rescue medication” value (migraine headache) was “consistently effective”.

In the case of `CC(C)C[C@H](CN)CC(=O)O` [pregabalin], the “benefit as migraine prophylactic agent” value (migraine headache) is reported as “without benefit” and the “comorbid neuropathic facial pain” value (tension headache) is reported as “treated effectively”.

For `CCCCc1nc(Cl)c(CO)n1Cc1ccc(-c2ccccc2-c2nn[nH]n2)cc1` [losartan], the “benefit as migraine prophylaxis” value (migraine headache) was “no benefit”.

For `CN(C)CCc1c[nH]c2ccc(Cn3cncn3)cc12` [rizatriptan], the “adverse effect of rescue medication” value (migraine headache) was “severe elevation in their blood pressure”, the “benefit as rescue medication” value (migraine headache) was “no longer effective” and the “share of time the rescue medication worked” value (migraine headache) was “approximately 20 % of the time”.

With `NS(=O)(=O)Cc1noc2ccccc12` [zonisamide] the “benefit as migraine prophylactic agent” value (migraine headache) was “without benefit”.

For `CCN(CC)CCNC(=O)c1cc(Cl)c(N)cc1OC` [metoclopramide], the “tolerability” value (migraine headache) was “intolerant”.

For `NCC(CC(=O)O)c1ccc(Cl)cc1` (centres unmarked) [baclofen], the “benefit as migraine prophylactic agent” value (migraine headache) was “without benefit”, the “benefit as migraine prophylaxis” value (migraine headache) was “no benefit” and the “benefit from previous treatment” value (migraine headache) was “no benefit”.

B1: Ajovy: prophylactic agent tried for migraines (antibody, chains of the INN, looked up, V domains shown)
VH: EVQLVESGGGLVQPGGSLRLSCAASGFTFSNYWISWVRQAPGKGLEWVAEIRSESDASATHYAEAVKGRFTISRDNAKNSLYLQMNSLRAEDTAVYYCLAYFDYGLAIQNYWGQGTLVTVSS
VL: EIVLTQSPATLSLSPGERATLSCKASKRVTTYVSWYQQKPGQAPRLLIYGASNRYLGIPARFSGSGSGTDFTLTISSLEPEDFAVYYCSQSYNYPYTFGQGTKLEIK
In the case of B1, the “benefit as migraine prophylactic agent” value (migraine headache) is reported as “without benefit”.

B2: Emgality: prophylactic agent prescribed for chronic migraine (antibody, chains of the INN, looked up, V domains shown)
VH: QVQLVQSGAEVKKPGSSVKVSCKASGYTFGNYWMQWVRQAPGQGLEWMGAIYEGTGKTVYIQKFADRVTITADKSTSTAYMELSSLRSEDTAVYYCARLSDYVSGFGYWGQGTTVTVSS
VL: DIQMTQSPSSLSASVGDRVTITCRASKDISKYLNWYQQKPGKAPKLLIYYTSGYHSGVPSRFSGSGSGTDFTLTISSLQPEDFATYYCQQGDALPPTFGGGTKVEIK
For B2, the “benefit as migraine prophylactic agent” value (migraine headache) was “without benefit”, the “benefit of subsequent treatment” value (migraine headache) was “reduced the pain somewhat, but had not reduced the frequency or duration” and the migraine frequency (migraine headache) was 2 to 3 days/week. The “tolerability” value (migraine headache) was “caused unwanted side effects” and the “frequency of headaches with throbbing, light and sound sensitivity” value (tension headache) was “decreased to around once or twice per week”.
